# Where two headings read alike, the source gives them in different places.
# What was measured:
# [1] = system: bee stings; type: in vivo, human; settings: both hands stung, 500 μg/gr cream once to the other hand, about 10 minutes after sting
# Description: (§1) The method of the invention has been carried out with respect to a number of skin disorders. The patients were treated with one of two peptides, each at a concentration of 50 μg/gr cream (unless otherwise indicated):
# (§2) The cream was manufactured by Amiga LTD, Israel, and contains the following components:
# 3. A person was stung by a bee.
# 4. person four was stung by bees on both hands.
# 5. person three was stung by bees on both hands.
# [2] = system: skin infection; type: in vivo, human
# Description: as §1, §2
# 1. person two suffered from an infection on the wrist of the left hand, apparently an allergic reaction to a watch band. Large spots appeared around the wrist accompanied by redness.
# 2. person three suffered from an infection on the wrist of the left hand, apparently an allergic reaction to a watch band. Large spots appeared around the wrist accompanied by redness and itching.
# 3. 2 cases of infected skin wounds.
# [3] = person three, wrist infection, allergic reaction to watch band, 500 μg/gr cream several times a day
substance,measurement,setting,value
pGLU-ASN-TRP-LYS-C8 [ZEP3],clinical outcome,[1]; person four,the swelling shrunk and the redness decreased to an identical degree on each hand
same,clinical outcome,[1]; person three,the swelling shrunk and the redness decreased to an identical degree on each hand
same,clinical outcome,"[2]; 2 cases of infected skin wounds, 50 μg/gr cream",aided in the healing of the wounds
same,clinical outcome,[2]; [3],immediate relief from the itching
same,time to decrease in redness,[2]; [3],≤ 24 h

# — patent publication US9012397B2 (priority 2011, dated 2015)
